Test results as given in BindingDB's records for doi:10.1021/jm800043g (Amgen, 2008).

Each compound was assayed against Hepatocyte growth factor receptor (Homo sapiens, UniProt P08581) (assay: HTRF Kinase Inhibition Assay). Conditions: pH 7.4; 22 °C.
Procedure: In vitro kinase assays were done to establish IC50 values against recombinant enzymes using homogeneous time-resolved fluorescence (HTRF) assay. Molecules were tested in a 10-point serial dilution using an ATP concentration of two thirds Km values that were determined for the enzymes and calculated using the Eadie-Hofstee and Lineweaver-Burke methods. The fluorescence ratios were read on a Rubystar instrument (BMG labtech Inc.).

Row | IC50 | SMILES
1 | 1 nM | COc1ccc2c(OCc3nnc4ccc(-c5cc(C)cs5)nn34)ccnc2c1 [7-methoxy-4-{[6-(4-methylthiophen-2-yl)-[1,2,4]triazolo[4,3-a]pyridazin-3-yl]methoxy}quinoline]
2 | 2 nM | COc1ccc2c(OCc3nnc4ccc(-c5cccs5)nn34)ccnc2c1 [7-methoxy-4-{[6-(thiophen-2-yl)-[1,2,4]triazolo[4,3-a]pyridazin-3-yl]methoxy}quinoline]
3 | 4 nM | COc1ccc2c(OCc3nnc4ccc(-c5ccsc5)nn34)ccnc2c1 [7-methoxy-4-{[6-(thiophen-3-yl)-[1,2,4]triazolo[4,3-a]pyridazin-3-yl]methoxy}quinoline]
